# According to patent publication US20190134120A1, “METHODS FOR THE TREATMENT OF BLADDER CANCER” (Viralytics Limited, priority 2013, published 2019):
# Tests used:
# T24 cells = assay: Mitomycin C IC50, T24 cells; type: cell-based, Human; conditions: 1x fold IC50 treatment concentration
# 5637 cells = assay: Mitomycin C IC50, 5637 cells; type: cell-based, Human; conditions: 1x fold IC50 treatment concentration
# KU19-19 cells = assay: Mitomycin C IC50, KU19-19 cells; type: cell-based, Human; conditions: 1x fold IC50 treatment concentration
# ICAM-1 [1] = assay: QPCR for ICAM-1 expression after Mitomycin C; type: cell-based, Human; conditions: 5637 cancer cell line exposed to Mitomycin C
# Experimental: (§1) FIGS. 4A-B: QPCR for ICAM-1/DAF expression. FIG. 4a) On 5637 & T24 cancer cell lines 24 hrs after irradiation (Gy 4-10). FIG. 4b) On 5637 cancer cell line exposed to Mitomycin C.
# (§2) Exposure to the chemotherapy agent Mitomycin C, up-regulates both ICAM-1 and DAF at the RNA level (FIG. 4b). To mimic patient exposure to Mitomycin C T24, RU19-19 and 5637 cells were pulsed with drug for 1, 3, 7, 24 hrs and ICAM-1 and DAF expression was measured by FACS analysis at 24 hrs.
# DAF [2] = assay: QPCR for DAF expression after Mitomycin C; type: cell-based, Human; conditions: 5637 cancer cell line exposed to Mitomycin C
# Experimental: as §1, §2
# ICAM-1 [3] = assay: FACS analysis of ICAM-1 (CD54) expression after Mitomycin C pulse; type: cell-based, Human
# Experimental: (§3) FIG. 5: FACS analysis of ICAM-1/DAF express in bladder cancer cell line pulse with Mitomycin C (×0.5 fold IC50×1, ×2) for 1, 3, 7 and 24 hrs.
# (§4) In brief, bladder cancer cells were plated at 5×10^5 cells per well (2 ml) of a 6 well tray and incubated at 37° C. for 24 hrs. The cells were treated with Mitomycin C (2× fold IC50 1× fold IC50, 0.5× fold IC50) and each concentration incubated at 37° C. for 1, 3, 7 and 24 hrs. Therefore T24 cells were treated 0.75, 0.375, 0.1876 ug/ml Mitomycin C, 5637 cells were treated with 0.68, 0.34, 0.17 ug/ml Mitomycin C and KU19-19 cells were treated with 1.4876, 0.7438, 0.3719 ug/ml. The cells were trypsinised and centrifuged for 3 mins at 1500 rpm to a pellet and re-suspended in FACS Buffer (PBS containing 10% BSA and 1% sodium azide). 100 ul of cells were added to appropriate wells in a 96-well round-bottomed plate. Antibodies were prepared at 1:10 in FACS buffer CD54 PE (BD: 347977) mIgG2b, CD55 PE (BD: 555694) mIgG2a and Isotype controls. […] Samples were read on a MACSQuant™ Analyzer (Bench top flow cytometer).
# as §2
# DAF [4] = assay: FACS analysis of DAF (CD55) expression after Mitomycin C pulse; type: cell-based, Human; conditions: T24, RU19-19 and 5637 cells; short pulse (1-3 hrs); measured at 24 hrs
# Experimental: as §3, §4, §2
# CVA21 = CVA21 viral replication in 5637 cells on exposure to MMC (TCID50 titration on SK-MEL-28); type: cell-based; conditions: CVA21 MOI 3, 0.4375 or 0.875 ug/ml Mitomycin C, 24 or 48 hours
# Experimental: Monolayers of 5637 bladder cancer cells were plated and incubated at 37° C./5% CO2 overnight. The media was removed, and CVA21 added at an MOI of 3 in 10% FCS medium containing 0, 0.4375 or 0.875 ug/ml Mitomycin C. The cells were then incubated at 37° C. for 24 or 48 hours. The plates were then frozen at −80° C. for 1 hour or o/n and then thawed after which cell CVA21 lysate was serially diluted 1:10 in 2% DMEM. The different concentrations of lysate were then added to SK-MEL-28 cells which had previously been plated at 1×10^4 cells per well (100 μL) in a 96 well plate in 10% DMEM. The assay was then incubated at 37° C. for 5 days, after which the media was removed from the cells and 100 ul of 0.1% Glutaldehyde (Sigma) in PBS was added. After an incubation of 10 mins at RT, the Glutaldehyde solution was removed and 100 ul of 0.1% w/v Crystal Violet solution (in 20% Ethanol) was added in order to visualise the cells. Following another incubation of 10 mins at RT the excess Crystal Violet was removed with tap water. TCID50 was calculated by the Spearman & Kärber algorithm as described in Hierholzer & Killington (1996), Virology Methods Manual, p. 374.
smiles,measurement,setting,value
"CO[C@@]12[C@H](COC(N)=O)C3=C(C(=O)C(C)=C(N)C3=O)N1C[C@@H]1N[C@@H]12 [Mitomycin C, mitomycin C]",IC50,T24 cells,0.375 µg/mL
same,IC50,5637 cells,0.34 µg/mL
same,IC50,KU19-19 cells,0.7438 µg/mL
same,ICAM-1 expression at the RNA level,ICAM-1 [1],up-regulates
same,DAF expression at the RNA level,DAF [2],up-regulates
same,ICAM-1 expression by FACS,"ICAM-1 [3]; T24, RU19-19 and 5637 cells, short pulse (1-3 hrs), measured at 24 hrs",strongly amplified
same,ICAM-1 amplification,"ICAM-1 [3]; one hour pulse of MMC, present from at least 4 hours after exposure",strong ICAM-1 amplification
same,DAF expression by FACS,DAF [4],strongly amplified
same,effect on CVA21 viral replication,CVA21,enhanced viral replication
